Assay results: US20260138970A1, “MODULATORS OF THE CALCIUM SIGNALING CASCADE” (FONDAZIONE TELETHON ETS, priority 2022, published 2026)

How the values were obtained:
Type in all cases: cell-based
ITPR = experiment: ci-IP3/PM uncaging Ca2+ imaging assay in FRT cells; conditions: compounds 10 μM; FIG. 4
Experimental: FRT and HEK293 cells were cultured in μ-Plate96 microplates (Ibidi) at subconfluent condition. Cells were washed 2 times with PBS (150 μl/wash) and then loaded for 45 min at 37° C. with 1 μM ci-IP3/PM (Tocris; catalog number: 6210/10U) and 5 μM Fluo-4/AM (Thermo Fisher Scientific) in PBS containing 10 mM glucose, 0.5 mM sulfinpyrazone and 1% fetal bovine serum. After 45 min, cells were further incubated for 1 h at 37° C. with a fresh PBS solution containing Fluo-4/AM, glucose, sulfinpyrazone, serum, but no ci-IP3/PM. After the second loading, cells were washed 2 times with PBS-glucose-sulfinpyrazone (150 μl/wash) and incubated for 20 min at 37° C. with 125 μl of PBS plus 10 mM glucose and 0.5 mM sulfinpyrazone containing compounds of interest at 10 μM final concentration or vehicle. Each well was assayed individually using an inverted Olympus microscope equipped with 40×oil immersion objective, 530 nm emission filter, Lambda DG4 (Sutter Instrument Co., Novato, CA, USA) illumination system with a 490 nm excitation filter, (Olympus, Segrate, Italy), Prime cmos camera (Photometrics, Tucson, AZ, USA) and MetaFluor imaging acquisition software (Molecular Devices, Sunnyvale, CA, USA). Time-lapse experiments were carried out with 50 ms exposure time, 0.5 s interval and 1.8 min total duration. […] Analysis was performed with MetaFluor software, by quantifying Fluo-4 fluorescence in manually selected single cell region of interest (ROI). Eight cells were selected in each field to generate an average trace. After background subtraction, fluorescence traces were normalized for the initial value.

CCK1 receptor = target: T1, CCK1 receptor (Homo sapiens, UniProt P32238); experiment: Fluo-4 Ca2+ assay in Chem-1 cells expressing CCK1 receptor; conditions: CCK8s 0.25 nM; vs vehicle (DMSO); FIG. 10
T1 construct: host or cells: Chem-1 cells
T1 sequence (P32238 1-428): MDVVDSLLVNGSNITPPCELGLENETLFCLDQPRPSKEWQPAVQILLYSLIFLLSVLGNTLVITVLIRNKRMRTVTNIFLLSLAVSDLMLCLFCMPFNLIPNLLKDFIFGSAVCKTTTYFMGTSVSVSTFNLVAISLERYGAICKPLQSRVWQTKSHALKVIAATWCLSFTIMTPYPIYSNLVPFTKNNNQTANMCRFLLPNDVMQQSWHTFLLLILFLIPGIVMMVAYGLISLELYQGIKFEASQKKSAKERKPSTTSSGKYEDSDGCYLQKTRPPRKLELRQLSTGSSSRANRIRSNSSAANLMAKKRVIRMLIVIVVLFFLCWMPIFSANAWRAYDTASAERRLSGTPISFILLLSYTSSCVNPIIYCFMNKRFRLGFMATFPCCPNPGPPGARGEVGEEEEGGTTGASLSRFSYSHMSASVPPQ
Experimental: Chem-1 cells expressing the CCK1 receptor (HTS184RTA, Merck) were cultured in Dulbecco's MEM/F12 (ECM0090L, EuroClone) with 10% fetal bovine serum, 2 mM L-glutamine, 100 U/ml penicillin and 100 μg/ml streptomycin.
In a further experimental setting, experiments were performed using as above the FLUOstar Omega (BMG Labtech, Offenburg, Germany) microplate reader equipped with syringe pumps and optical excitation/emission filters optimized for yellow fluorescent protein (YFP) fluorescence (ET500/20× and ET535/30m, respectively; Chroma Technology Corporation). FRT and Chem-1 cells were cultured until confluence in 96-well microplates (cc3603, Corning). Cells were washed 2 times with PBS (150 μl/wash) and then loaded for 1 h at 37° C. with 5 μM Fluo-4/AM (Thermo Fisher Scientific; catalog number: F23917) in PBS containing 10 mM glucose, 0.5 mM sulfinpyrazone, and 1% fetal bovine serum. […] Fluo-4 fluorescence (500 nm excitation, 535 nm emission) was detected every 200 ms for 16-40 s. Two seconds after the start of fluorescence recording, the reader automatically injected 165 μl of a modified PBS containing 136 mM KCl instead of NaCl. […] The Fluo-4 fluorescence increase was quantified using a procedure compiled in Microsoft Excel after background subtraction and normalization for the initial value measured before UTP or CCK8s addition.

PLC = PLC assay in FRT cells expressing PH-PLC-GFP sensor; conditions: compounds 10 μM, cytosolic GFP increase, FIG. 3; for potentiation of UTP effect on PLC activity, lower UTP concentration: UTP 0.25 μM; for potentiation of UTP effect on PLC activity, higher UTP concentration: UTP 100 μM
Experimental: FRT cells with stable expression of PLC6-PH-GFP, generated in the laboratory of inventors, were cultured up to subconfluent condition in p-Plate96 microplates (Ibidi). Each well of a 96-well microplate was washed 3 times, leaving 125 μl of phosphate-buffered saline (PBS) containing compounds at 10 μM final concentration or vehicle. After 20 min of incubation at 37° C., microplate was moved on the stage of an inverted microscope equipped with GFP excitation/emission filters, 40×oil immersion objective (Olympus, Segrate, Italy), Lambda DG4 illumination system (Sutter Instrument Co., Novato, CA, USA), Prime cmos camera (Photometrics, Tucson, AZ, USA) and MetaMorph imaging acquisition software (Molecular Devices, Sunnyvale, CA, USA). Time-lapse experiments were carried out with 50 ms exposure time, 20 frame/s rate, and 2.4 min total duration. After 20 s and 90 s, UTP 0.25 μM and 100 μM (final concentrations) was respectively added. Analysis was performed with MetaMorph software, by quantifying GFP fluorescence cytoplasmic accumulation in manually selected single cell regions of interest (ROI). After background subtraction, fluorescence recordings were normalized for the initial value.

| Compound | activity on Ca2+ mobilization by IP3 uncaging, FRT cells (ITPR) | effect on CCK8s-induced Ca2+ mobilization (CCK1 receptor) | potentiation of UTP effect on PLC activity, lower UTP concentration (PLC) | potentiation of UTP effect on PLC activity, higher UTP concentration (PLC) |
| --- | --- | --- | --- | --- |
| CCc1cc(-c2cc(NCCCOc3ccccc3C)nc(N)n2)n(C)n1 [ARN7149, 6-(3-Ethyl-1-methyl-1H-pyrazol-5-yl)-N^4-(3-(o-tolyloxy)propyl)pyrimidine-2,4-diamine] | inactive | lack of activity | significantly potentiated | effective |
| CCn1nc2c(c1C(=O)Nc1ccccc1OCC1CCCCO1)CCCC2 (stereo not shown) [ARN11391, 2-Ethyl-N-[2-(tetrahydropyran-2-ylmethoxy)phenyl]-4,5,6,7-tetrahydroindazole-3-carboxamide] | showed activity | – | – | effective |
| OCc1ccccc1CN(Cc1ccnc(N2CCCC2)n1)c1ccc(F)cc1 [ARN4550, [2-[[4-Fluoro-N-[(2-pyrrolidin-1-ylpyrimidin-4-yl)methyl]anilino]methyl]phenyl]methanol] | inactive | significantly enhanced | significantly potentiated | effective |
